Assay results published in patent publication US9238039B2, “Pyrazolo[1,5-A]pyrimidines for antiviral treatment” (Gilead Sciences, Inc., priority 2010, dated 2016).

Test system: RSV strain A2
Assay: RSV antiviral cytoprotection assay in Hep2 cells (96-well and 384-well format, Cell TiterGlo read-out)
Type: cell-based, Respiratory Syncytial Virus (RSV)
Conditions: for inhibition at 0.5 µM: HEp-2, 0.5 uM; for inhibition at 1 µM: HEp-2, 1 uM; for EC50: Hep2 cells, class symbols
[1] = human respiratory syncytial virus, RSV-induced cytopathic effect in Hep2 cells, calculated from fitted dose response curve, normalized to 0% and 100%
[2] = human respiratory syncytial virus, HEp-2, RSV-induced cytopathic effects

| SMILES | inhibition at 0.5 µM [1] [%] | inhibition at 1 µM [1] [%] | EC50 [2] [nM] | EC50 (RSV-induced cytopathic effects) [nM] | % inh @ 0.5 uM (0.5 uM, RSV-induced cytopathic effect in Hep2 cells, calculated from fitted dose response curve, normalized to 0% and 100%) [%] |
| --- | --- | --- | --- | --- | --- |
| Cc1[nH]c2cc([C@@H]3CCCCN3C(=O)c3ccccc3NC(=O)OC(C)(C)C)nn2c(=O)c1C [Compound 2] | 36 | 46 | 101 to 1000 |  |  |
| CNc1ccccc1C(=O)N1CCCC[C@H]1c1cc2[nH]c(C)c(C)c(=O)n2n1 [Compound 7] | 93 | 98 | 0.1 to 100 |  |  |
| COc1ccc(NS(C)(=O)=O)c(C(=O)N2CCCC[C@H]2c2cc3[nH]c(C)c(C)c(=O)n3n2)c1 [Compound 10] | 94 | 99 | 0.1 to 100 |  |  |
| Cc1[nH]c2cc([C@@H]3CCCCN3C(=O)c3ccccc3NC(=O)C3CC3)nn2c(=O)c1C [Compound 14] | 96 | 98 | 0.1 to 100 |  |  |
| Cc1[nH]c2cc([C@@H]3CCCCN3C(=O)c3ccccc3NS(=O)(=O)N3CCOCC3)nn2c(=O)c1C [Compound 15] | 30 | 42 | 101 to 1000 |  |  |
| CC(=O)Nc1ccc(F)cc1C(=O)N1CCCC[C@H]1c1cc2[nH]c(C)c(C)c(=O)n2n1 [Compound 16] | 89 | 97 | 0.1 to 100 |  |  |
| Cc1c[nH]c2cc([C@@H]3CCCCN3C(=O)c3cc(F)ccc3NS(C)(=O)=O)nn2c1=O [Compound 17] | 75 | 97 | 101 to 1000 |  |  |
| Cc1[nH]c2cc([C@@H]3CCCCN3C(=O)c3cc(F)ccc3NS(C)(=O)=O)nn2c(=O)c1F [Compound 19] | 67 | 84 | 101 to 1000 |  |  |
| Cc1[nH]c2cc([C@@H]3COCCN3C(=O)c3ccccc3NS(C)(=O)=O)nn2c(=O)c1C [Compound 20, N-{2-[3-(5,6-Dimethyl-7-oxo-4,7-dihydro-pyrazolo[1,5-a]pyrimidin-2-yl)-morpholine-4-carbonyl]-phenyl}-methanesulfonamide] | 7 | 53 | 1000 to 10000 |  |  |
| Cc1[nH]c2cc([C@@H]3C[C@H](C)CCN3C(=O)c3cc(F)ccc3NS(C)(=O)=O)nn2c(=O)c1C [Compound 21] | 4 | 10 | 1000 to 10000 |  |  |
| Cc1[nH]c2cc([C@@H]3C[C@@H](C)CCN3C(=O)c3cc(F)ccc3NS(C)(=O)=O)nn2c(=O)c1C [Compound 22] | 95 | 99 | 0.1 to 100 |  |  |
| CCc1c(C)[nH]c2cc([C@@H]3CCCCN3C(=O)c3cc(F)ccc3NS(C)(=O)=O)nn2c1=O [Compound 28] | 73 | 95 | 101 to 1000 |  |  |
| Cc1ccc(NS(C)(=O)=O)c(C(=O)N2CCCC(C)C2c2cc3[nH]c(C)c(C)c(=O)n3n2)c1 (stereo not shown) [Compound 30] | 99 |  |  | 101 to 1000 |  |
| Cc1cccc(NS(C)(=O)=O)c1C(=O)N1CCCC[C@H]1c1cc2[nH]c(C)c(C)c(=O)n2n1 [Compound 32] | 99 |  | 0.1 to 100 |  |  |
| Cc1ccc(NS(C)(=O)=O)c(C(=O)N2Cc3ccccc3C[C@H]2c2cc3[nH]c(C)c(C)c(=O)n3n2)c1 [Compound 33] | 98 |  | 0.1 to 100 |  |  |
| Cc1ccc(NS(C)(=O)=O)c(C(=O)N2Cc3ccccc3C[C@H]2c2cc3nc(C)c(C)c(N(C)C)n3n2)c1 [Compound 34] | 91 |  | 0.1 to 100 |  |  |
| Cc1ccc(NS(C)(=O)=O)c(C(=O)N2Cc3ccccc3C[C@H]2c2cc3nc(C)c(C)cn3n2)c1 [Compound 35] | 96 |  | 0.1 to 100 |  |  |
| Cc1ccc(NS(C)(=O)=O)c(C(=O)N2CCCC(C)C2c2cc3nc(C)c(C)cn3n2)c1 (stereo not shown) [Compound 36] | 90 |  | 0.1 to 100 |  |  |
| Cc1ccc(NS(C)(=O)=O)c(C(=O)N2CCCC(C)C2c2cc3[nH]c(C)c(C)c(=O)n3n2)c1 (stereo not shown) [Compound 37] |  |  |  | 0.1 to 100 | 100 |

| SMILES | inhibition at 0.5 µM [1] [%] | inhibition at 1 µM [1] [%] | EC50 [2] [nM] | EC50 (RSV-induced cytopathic effects) [nM] | % inh @ 0.5 uM (0.5 uM, RSV-induced cytopathic effect in Hep2 cells, calculated from fitted dose response curve, normalized to 0% and 100%) [%] |
| --- | --- | --- | --- | --- | --- |
| Cc1ccc(NS(C)(=O)=O)c(C(=O)N2CCCC[C@H]2c2cc3nc(C)cc(N(C)C)n3n2)c1 [Compound 39] | 100 |  | 0.1 to 100 |  |  |
| Cc1cc(N2CC(O)C2)nc2cc([C@@H]3CCCCN3C(=O)c3cc(Cl)ccc3NS(C)(=O)=O)nn12 [Compound 40] | 100 |  | 0.1 to 100 |  |  |
| Cc1cc(N(C)C)nc2cc([C@@H]3CCCCN3C(=O)c3cc(Cl)ccc3NS(C)(=O)=O)nn12 [Compound 41] | 95 |  | 0.1 to 100 |  |  |
| Cc1cc(N2CCC2)nc2cc([C@@H]3CCCCN3C(=O)c3cc(Cl)ccc3NS(C)(=O)=O)nn12 [Compound 42] | 100 |  | 0.1 to 100 |  |  |
| CS(=O)(=O)Nc1ccc(Cl)cc1C(=O)N1CCCC[C@H]1c1cc2nc(N3CCC3)ccn2n1 [Compound 43] | 100 |  | 0.1 to 100 |  |  |
| CS(=O)(=O)Nc1ccc(Cl)cc1C(=O)N1CCCC[C@H]1c1cc2nc(N3CCC3)cc(N3CCC(O)CC3)n2n1 [Compound 44] | 100 |  | 0.1 to 100 |  |  |
| CS(=O)(=O)Nc1ccc(Cl)cc1C(=O)N1CCCC[C@H]1c1cc2nc(N3CCC3)cc(N3CCNCC3)n2n1 [Compound 45] | 100 |  | 0.1 to 100 |  |  |
| Cc1cc(N2CCCC2)nc2cc([C@@H]3CCCCN3C(=O)c3cc(Cl)ccc3NS(C)(=O)=O)nn12 [Compound 46] | 100 |  | 0.1 to 100 |  |  |
| Cc1cc(N2CC(F)C2)nc2cc([C@@H]3CCCCN3C(=O)c3cc(Cl)ccc3NS(C)(=O)=O)nn12 [Compound 47] | 100 |  | 0.1 to 100 |  |  |
| Cc1cc(N2CC[C@@H](O)C2)nc2cc([C@@H]3CCCCN3C(=O)c3cc(Cl)ccc3NS(C)(=O)=O)nn12 [Compound 48] | 99 |  | 0.1 to 100 |  |  |
| CS(=O)(=O)Nc1ccc(Cl)cc1C(=O)N1CCCC[C@H]1c1cc2nc(N3CC(O)C3)ccn2n1 [Compound 49] | 98 |  | 0.1 to 100 |  |  |
| CS(=O)(=O)Nc1ccc(Cl)cc1C(=O)N1CCCC[C@H]1c1cc2nc(N3CC(O)C3)cc(N3CCNCC3)n2n1 [Compound 50] | 100 |  | 0.1 to 100 |  |  |
| CS(=O)(=O)Nc1ccc(Cl)cc1C(=O)N1CCCC[C@H]1c1cc2nc(N3CC[C@@H](O)C3)ccn2n1 [Compound 51] | 98 |  | 0.1 to 100 |  |  |
| Cc1cc(N2CC(N)C2)nc2cc([C@@H]3CCCCN3C(=O)c3cc(Cl)ccc3NS(C)(=O)=O)nn12 [Compound 52] | 100 |  | 0.1 to 100 |  |  |
| CS(=O)(=O)Nc1ccc(Cl)cc1C(=O)N1CCCC[C@H]1c1cc2nc(N3CC(N)C3)ccn2n1 [Compound 53] | 98 |  | 0.1 to 100 |  |  |
| CN1CCN(c2cc(N3CC(O)C3)nc3cc([C@@H]4CCCCN4C(=O)c4cc(Cl)ccc4NS(C)(=O)=O)nn23)CC1 [Compound 54] | 100 |  | 0.1 to 100 |  |  |
| CN(C)CCN(C)c1cc(N2CC(O)C2)nc2cc([C@@H]3CCCCN3C(=O)c3cc(Cl)ccc3NS(C)(=O)=O)nn12 [Compound 55] | 100 |  | 0.1 to 100 |  |  |
| CS(=O)(=O)Nc1ccc(Cl)cc1C(=O)N1CCCC[C@H]1c1cc2nc(N3CCC3)cc(N3CC(O)C3)n2n1 [Compound 56] | 100 |  | 0.1 to 100 |  |  |
| CS(=O)(=O)Nc1ccc(Cl)cc1C(=O)N1CCCC[C@H]1c1cc2nc(N3CCC3)cc(N3CCC(O)C3)n2n1 (stereo partly shown) [Compound 57] | 100 |  | 0.1 to 100 |  |  |
